Results reported in article PMC12345137 (mBio, 2025).
Entries after “also recorded” stand apart in the source; their conditions may differ. Read-outs that look alike come from different tables or passages of the source. Positions of bridges follow the written chain, without caps; N, C: chain ends. Residues, ends and D or L forms follow the SMILES beside them.

Assays:
S. epidermidis agr-II = S. epidermidis agr-II (Staphylococcus epidermidis, UniProt Q8VSX5); test: cell-based; format: cell-based; settings: for QS interaction in words (inhibition / activation), S. epidermidis agr-II: fluorescent reporter strain, peptides tested at 1000, 50, 2.5, 0.125 nM or in dose-response
S. epidermidis agr-II, sequence (Q8VSX5 entry or part of it): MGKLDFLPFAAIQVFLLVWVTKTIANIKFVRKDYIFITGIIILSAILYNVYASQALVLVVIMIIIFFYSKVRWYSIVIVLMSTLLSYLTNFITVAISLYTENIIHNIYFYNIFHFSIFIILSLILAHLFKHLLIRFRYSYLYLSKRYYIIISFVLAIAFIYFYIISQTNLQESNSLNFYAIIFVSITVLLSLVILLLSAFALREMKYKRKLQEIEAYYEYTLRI
Method in brief: (§1)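 37°C, 1,000 rpm, 22–24 h in TSB + CAM or ERM (10 μg/mL); 1:5 serial peptide dilutions from 1 mM DMSO stocks; fluorescence (GFP ex 479/em 520, YFP ex 500/em 541) minus blank, ÷OD600, % of untreated control; IC50 by variable-slope fit.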

S. epidermidis agr-III = S. epidermidis agr-III (Staphylococcus epidermidis, UniProt Q8VSX2); test: cell-based; format: cell-based; settings: for QS interaction in words (inhibition / activation), S. epidermidis agr-III: fluorescent reporter strain, peptides tested at 1000, 50, 2.5, 0.125 nM or in dose-response
S. epidermidis agr-III, sequence (Q8VSX2 entry or part of it): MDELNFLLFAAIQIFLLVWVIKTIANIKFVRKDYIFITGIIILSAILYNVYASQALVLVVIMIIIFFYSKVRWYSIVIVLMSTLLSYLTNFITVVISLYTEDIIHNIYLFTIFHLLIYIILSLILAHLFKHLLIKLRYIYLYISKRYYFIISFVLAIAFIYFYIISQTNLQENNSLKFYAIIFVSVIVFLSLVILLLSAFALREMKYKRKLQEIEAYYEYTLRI
Method in brief: as §1

S. aureus agr-II = S. aureus agr-II (Staphylococcus aureus, UniProt O33587); test: cell-based
S. aureus agr-II, sequence (O33587 entry or part of it): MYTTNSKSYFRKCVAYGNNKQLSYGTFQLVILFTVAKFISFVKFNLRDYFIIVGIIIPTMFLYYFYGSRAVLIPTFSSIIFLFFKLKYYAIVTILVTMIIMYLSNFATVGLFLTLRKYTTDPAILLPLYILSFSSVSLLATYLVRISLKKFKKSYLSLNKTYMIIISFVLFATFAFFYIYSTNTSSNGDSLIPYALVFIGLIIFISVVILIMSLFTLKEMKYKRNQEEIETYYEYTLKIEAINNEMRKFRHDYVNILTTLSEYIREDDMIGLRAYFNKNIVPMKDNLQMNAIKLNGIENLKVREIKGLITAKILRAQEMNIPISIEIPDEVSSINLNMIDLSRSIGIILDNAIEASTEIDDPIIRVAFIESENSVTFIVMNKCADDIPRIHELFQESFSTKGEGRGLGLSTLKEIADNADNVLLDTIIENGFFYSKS
Method in brief: as §1

S. lugdunensis agr-I = S. lugdunensis agr-I (Staphylococcus lugdunensis, UniProt Q8VSW5); test: cell-based; settings: for QS interaction in words (inhibition / activation), S. lugdunensis agr-I: fluorescent reporter strain, peptides tested at 1000, 50, 2.5, 0.125 nM or in dose-response
S. lugdunensis agr-I, sequence (Q8VSW5 entry or part of it): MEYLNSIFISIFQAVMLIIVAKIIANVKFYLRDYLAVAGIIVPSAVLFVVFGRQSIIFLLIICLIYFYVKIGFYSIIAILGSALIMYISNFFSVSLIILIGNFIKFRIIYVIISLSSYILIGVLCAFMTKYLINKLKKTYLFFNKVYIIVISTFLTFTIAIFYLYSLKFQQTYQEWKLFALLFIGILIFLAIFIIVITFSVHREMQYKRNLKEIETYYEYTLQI
Method in brief: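 Fluorescence of the agr-driven P3 reporter, read after 22–24 h of growth with peptide at 37°C, was corrected for medium background and divided by OD600. Activity is given relative to wells without peptide, and IC50 values were fitted by non-linear regression with variable slope.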

S. aureus agr-III = S. aureus agr-III (Staphylococcus aureus, UniProt O33590); test: cell-based
S. aureus agr-III, sequence (O33590 entry or part of it): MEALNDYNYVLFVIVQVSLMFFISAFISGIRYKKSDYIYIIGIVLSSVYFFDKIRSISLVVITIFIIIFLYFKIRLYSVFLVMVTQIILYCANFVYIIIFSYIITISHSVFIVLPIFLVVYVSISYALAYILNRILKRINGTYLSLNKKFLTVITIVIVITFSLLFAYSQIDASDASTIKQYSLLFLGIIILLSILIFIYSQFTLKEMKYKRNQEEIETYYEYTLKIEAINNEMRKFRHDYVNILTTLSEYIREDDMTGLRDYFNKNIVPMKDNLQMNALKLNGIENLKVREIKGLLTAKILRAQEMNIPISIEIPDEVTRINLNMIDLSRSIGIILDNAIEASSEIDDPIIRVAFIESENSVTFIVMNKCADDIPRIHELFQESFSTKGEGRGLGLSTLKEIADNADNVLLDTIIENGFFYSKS
Method in brief: as §1

SA AgrC-II = SA AgrC-II (Staphylococcus aureus, UniProt O33587)
SA AgrC-II, sequence (O33587 entry or part of it): as the sequence (O33587 entry or part of it) above

SA AgrC-III = SA AgrC-III (Staphylococcus aureus, UniProt O33590); settings: 100 nM cognate AIP, ± SEM, determined previously, ref (1), cited from earlier work
SA AgrC-III, sequence (O33590 entry or part of it): as the sequence (O33590 entry or part of it) above

SA AgrC-I = SA AgrC-I (Staphylococcus aureus, UniProt O07911)
SA AgrC-I, sequence (O07911 entry or part of it): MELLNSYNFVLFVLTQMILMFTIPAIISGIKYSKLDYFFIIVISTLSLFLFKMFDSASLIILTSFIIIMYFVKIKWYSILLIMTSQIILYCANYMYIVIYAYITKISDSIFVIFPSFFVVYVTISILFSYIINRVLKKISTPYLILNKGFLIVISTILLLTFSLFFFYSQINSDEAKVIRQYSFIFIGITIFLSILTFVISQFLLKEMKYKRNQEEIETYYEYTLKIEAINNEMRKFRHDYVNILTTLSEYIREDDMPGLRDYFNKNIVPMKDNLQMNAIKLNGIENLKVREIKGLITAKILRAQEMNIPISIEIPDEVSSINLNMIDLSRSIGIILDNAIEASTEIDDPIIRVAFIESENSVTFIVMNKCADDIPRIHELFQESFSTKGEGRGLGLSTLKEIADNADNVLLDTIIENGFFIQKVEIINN

S. aureus agr-IV = S. aureus agr-IV (Staphylococcus aureus, UniProt Q309Z2); test: cell-based; format: cell-based
S. aureus agr-IV, sequence (Q309Z2 entry or part of it): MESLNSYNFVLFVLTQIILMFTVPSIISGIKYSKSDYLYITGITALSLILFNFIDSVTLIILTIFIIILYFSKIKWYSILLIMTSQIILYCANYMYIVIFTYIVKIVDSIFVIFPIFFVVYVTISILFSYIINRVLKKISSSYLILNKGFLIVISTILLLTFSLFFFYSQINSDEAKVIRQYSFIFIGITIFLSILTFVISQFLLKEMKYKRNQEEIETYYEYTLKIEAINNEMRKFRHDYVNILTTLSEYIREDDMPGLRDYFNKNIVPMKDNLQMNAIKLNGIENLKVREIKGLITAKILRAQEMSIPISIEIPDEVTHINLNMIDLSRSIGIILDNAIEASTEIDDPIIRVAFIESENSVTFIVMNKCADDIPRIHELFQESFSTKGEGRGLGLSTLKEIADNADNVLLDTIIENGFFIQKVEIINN
Method in brief: as §1

S. aureus (SA) agr-I = settings: fluorescence, cited from earlier work
[1] = 100 nM cognate AIP; ± SEM; -b = no inhibition recorded at the highest AIP concentration tested; determined previously; ref (1); read-out: IC50, SA AgrC-II, b-lactamase assay; cited from earlier work
[2] = fluorescent reporter strain, peptides tested at 1000, 50, 2.5, 0.125 nM or in dose-response

Row | Compound | IC50 (S. epidermidis agr-II) [nM] | IC50 (S. epidermidis agr-III) [nM] | IC50 (S. aureus agr-II) [nM] | IC50 (S. lugdunensis agr-I) [nM] | IC50 (S. aureus agr-III) [nM] | IC50 (SA AgrC-II; [1]) [nM] | IC50 (S. aureus agr-IV) [nM] | QS interaction in words (inhibition / activation), S. epidermidis agr-III (S. epidermidis agr-III) | IC50 (S. aureus (SA) agr-I; ref (17)) [nM] | QS interaction in words (inhibition / activation), S. epidermidis agr-II (S. epidermidis agr-II) | QS interaction in words (inhibition / activation), S. lugdunensis agr-I (S. lugdunensis agr-I) | other results
1 | CC[C@H](C)[C@@H]1NC(=O)[C@H](Cc2ccccc2)NC(=O)[C@H](CC(=O)O)NC(=O)[C@@H](NC(=O)[C@@H](NC(=O)[C@H](CO)NC(=O)[C@@H](N)Cc2ccc(O)cc2)[C@@H](C)O)CSC(=O)[C@H](CCSC)NC1=O [compound 1, S. aureus AIP-I] (H-YSTCDFIM; thioester 4-C) | > 1000 | > 1000 | 5.8 ± 0.7 | > 1000 | 0.91 | 700 ± 165 |  |  |  |  |  | IC50 (SA AgrC-III; -b = no inhibition recorded at the highest AIP concentration tested, read-out: IC50, SA AgrC-III, b-lactamase assay): 80 ± 11 nM; EC50 (SA AgrC-I; ± SEM; determined previously; ref (1); read-out: EC50, SA AgrC-I, b-lactamase assay; cited from earlier work): 5.4 ± 0.5 nM
2 | CC(C)C[C@@H]1NC(=O)[C@@H](NC(=O)[C@@H]2CCCN2C(=O)[C@H](CC(N)=O)NC(=O)[C@H](Cc2ccc(O)cc2)NC(=O)[C@@H](N)CCCCN)CSC(=O)[C@H](CC(C)C)NC(=O)[C@H](Cc2ccccc2)NC(=O)CNC1=O [compound 32, S. simulans AIP-I] (H-KYNPCLGFL; thioester 5-C; N-terminus assumed) | 0.26 ± 0.01 |  | 0.31 ± 0.01 | 113 ± 11 | 0.53 ± 0.02 |  | 10 | activated; also recorded: activators | 2.2 |  |  | QS interaction in words (inhibition / activation), S. epidermidis agr-III (S. epidermidis agr-III; listed as S. simulans AIP-I): activation; IC50 (SA AgrC-II; read-out: IC50, SA AgrC-II, b-lactamase assay; 100 nM cognate AIP; ± SEM; -b = no inhibition recorded at the highest AIP concentration tested; determined previously; ref (1); cited from earlier work): 23 ± 2 nM; IC50 (SA AgrC-III; read-out: IC50, SA AgrC-III, b-lactamase assay, -b = no inhibition recorded at the highest AIP concentration tested): 50 ± 11 nM; IC50 (SA AgrC-I; read-out: IC50, SA AgrC-I, b-lactamase assay; 100 nM cognate AIP; ± SEM; -b = no inhibition recorded at the highest AIP concentration tested; determined previously; ref (1); cited from earlier work): 8.6 ± 0.5 nM
3 | NCCCC[C@H](N)C(=O)N[C@@H](Cc1ccc(O)cc1)C(=O)N[C@@H](Cc1ccc(O)cc1)C(=O)N1CCC[C@H]1C(=O)N[C@H]1CSC(=O)[C@H](Cc2ccccc2)NC(=O)[C@H](Cc2ccc(O)cc2)NC(=O)CNC(=O)[C@H](Cc2c[nH]c3ccccc23)NC1=O [compound 33, S. simulans AIP-II] (H-KYYPCWGYF; thioester 5-C) | 0.26 ± 0.08 | 0.6 ± 0.2 | 0.8 ± 0.2 | 1.2 ± 0.2 | 2.8 ± 0.3 |  | 31 ± 7 | inhibited; also recorded: sub-nanomolar inhibition | 1.6 | inhibited | inhibited; also recorded: sub- or low-nanomolar potencies | QS interaction in words (inhibition / activation), S. aureus agr-IV (S. aureus agr-IV; [2]): inhibited; QS interaction in words (inhibition / activation), S. aureus agr-II (S. aureus agr-II; [2]): inhibited; QS interaction in words (inhibition / activation), S. aureus agr-III (S. aureus agr-III; [2]): inhibited
4 | NCCCC[C@H](N)C(=O)N[C@@H](Cc1ccc(O)cc1)C(=O)N[C@@H](CC(N)=O)C(=O)N1CCC[C@H]1C(=O)N[C@H]1CSC(=O)[C@H](Cc2ccccc2)NC(=O)[C@H](Cc2ccc(O)cc2)NC(=O)CNC(=O)[C@H](Cc2c[nH]c3ccccc23)NC1=O [compound 34, S. simulans AIP-III] (H-KYNPCWGYF; thioester 5-C) | 0.11 ± 0.02 |  | 0.22 ± 0.06 | 0.48 | 0.59 ± 0.04 |  | 34 | activated; also recorded: activators | 1.7 |  | sub- or low-nanomolar potencies | QS interaction in words (inhibition / activation), S. epidermidis agr-III (S. epidermidis agr-III; listed as S. simulans AIP-III): activator; IC50 fold lower compared with the most potent, previously reported inhibitors of S. lugdunensis (S. lugdunensis agr-I; S. lugdunensis agr-I, comparison with [37]): 400 fold
5 | S. aureus AIP-III D4A [compound 57, reference compound] |  |  |  |  |  | 34 ± 1 |  | weak interference |  | weak interference | weak interference | QS inhibition at […], S. aureus agr-IV (S. aureus agr-IV; […] peptide, fluorescent reporter strain): > 95%; IC50 (S. aureus (SA) agr-I; ref (5)): 0.49 nM; IC50 (SA AgrC-III; only partial inhibition observed, read-out: IC50, SA AgrC-III, b-lactamase assay, only partial inhibition observed (footnote a)): 1.6 ± 0.2 nM; IC50 (SA AgrC-I; 100 nM cognate AIP; ± SEM; -b = no inhibition recorded at the highest AIP concentration tested; determined previously; ref (1); read-out: IC50, SA AgrC-I, b-lactamase assay; cited from earlier work): 3.3 ± 0.7 nM
